Experimental data as given in publication PMC11679793, “Structure-Activity Relationship Study of Majusculamide D: Overcoming Metabolic Instability and Severe Toxicity with a Fluoro Analogue” (Marine Drugs, 2024).

Legend:
[1] = system: β-catenin, Claudin-1, E-cadherin, Fibronectin, Snail, TCF8/ZEB1, Vimentin in PANC-1 cells and MIA PaCa-2 cells; assay: Western blot assay of Wnt/EMT biomarkers; format: cell-based; conditions: PANC-1 and MIA PaCa-2 cells
Text: It is well established that the metastasis of tumors was accompanied by the change of several special proteins. β-catenin is an intracellular signaling molecule primarily involved in the Wnt signaling pathway and regulates cell proliferation and differentiation. The abnormal activation of β-catenin is associated with tumor development and increased invasiveness. Claudin-1 belongs to the tight junction protein family, which maintains the barrier function between cells and is correlated with some cancers’ metastatic ability. E-cadherin is an intercellular adhesion molecule, and its decreased expression is common in the phenotype transition process of cancer cells, such as epithelial-mesenchymal transition (EMT), which is a key step in cancer metastasis. Fibronectin is an extracellular matrix protein involved in cell adhesion and migration, and its expression is often positively associated with cancer’s metastatic ability. Snail and TCF8/ZEB1 both are transcription factors that can inhibit the expression of E-cadherin and promote the EMT process. Vimentin is a marker protein of mesenchymal cells, and its expression increases during EMT, further contribute to the process of metastasis by supporting the structural changes needed for cell migration and invasion. […]
Cells were lysed in RIPA lysis buffer (Solarbio, China). The protein concentration was determined using the BCA assay. […]

[2] = Serum biochemical analysis and H&E histology of liver and kidney; format: in vivo, mice; conditions: 5 mg/kg every other day, 14 days
Protocol: In the biochemical and histological assays, 1n (5 mg/kg) and 1a (5 mg/kg) were administered to mice every other day, with the control group receiving an equivalent dose of saline. Following 14 days, mouse serum was collected for biochemical analysis, and organs were fixed for histological examination. […] In comparison, the liver tissues of the 1n-treated and control groups were normal.
Mice were euthanized, and liver and kidney tissues were collected and fixed in 10% neutral-buffered formalin for 48 h. The fixed tissues were processed for paraffin embedding, including dehydration in a graded ethanol series, clearing with xylene, and infiltration with molten paraffin wax. Paraffin blocks were sectioned into 4 μm slices using a rotary microtome, and the sections were mounted onto glass slides. The slides were dried at 60 °C for 4 h to ensure proper tissue adhesion. Following deparaffinization and rehydration, staining was performed according to the manufacturer’s instructions for the H&E staining kit (Solarbio, China). The sections were immersed in a hematoxylin solution for 3 min to stain the nuclei and then rinsed under running tap water for 1 minute to remove excess stain. Differentiation was achieved by briefly immersing the slides in a 1% hydrochloric acid-ethanol solution, followed by neutralization in 0.6% ammonia water until the nuclei appeared blue. Eosin staining was applied for 30 s to stain cytoplasmic and extracellular components, imparting a pink coloration. The slides were rinsed under running tap water for 30 s to remove excess eosin. Finally, the sections were dehydrated through a graded ethanol series, cleared with xylene, and coverslipped with a neutral resin mounting medium to preserve the stained tissues for microscopic examination.

## CCCCC(C)CC(C)C(=O)N(C)C(Cc1ccc(OC)cc1)C(=O)NC(C(=O)N(C)C(C(=O)N1CC(O)CC1C(=O)N1C(=O)C=CC1C)C(C)C)C(C)OC(C)=O (centres unmarked) [Compound 1a, Majusculamide D]
[1]; increasing concentrations
  expression levels of β-catenin, Fibronectin, Snail, TCF8/ZEB1 and Vimentin: decreased
[1]; rising concentrations
  expression levels of Claudin-1 and E-cadherin: increased
[2]
  kidney tissue H&E histology: no significant pathological differences
  liver tissue H&E histology: signs of hepatocyte necrosis and disruption of the hepatic cord structure
[2]; n = 3
  serum ALT and AST levels compared to the control group: substantially elevated
